Measurements: ChEMBL document CHEMBL1150016, “Quinuclidine based NK-1 antagonists 2: determination of the absolute stereochemical requirements” (Bioorg Med Chem Lett, 1993)

Each compound was assayed against Substance-P receptor (Homo sapiens, UniProt P25103) (assay: Tested for binding affinity by measuring displacement of [125I]SP from human NK-1 receptor in CHO Cells).
Sequence of Substance-P receptor (P25103 whole entry): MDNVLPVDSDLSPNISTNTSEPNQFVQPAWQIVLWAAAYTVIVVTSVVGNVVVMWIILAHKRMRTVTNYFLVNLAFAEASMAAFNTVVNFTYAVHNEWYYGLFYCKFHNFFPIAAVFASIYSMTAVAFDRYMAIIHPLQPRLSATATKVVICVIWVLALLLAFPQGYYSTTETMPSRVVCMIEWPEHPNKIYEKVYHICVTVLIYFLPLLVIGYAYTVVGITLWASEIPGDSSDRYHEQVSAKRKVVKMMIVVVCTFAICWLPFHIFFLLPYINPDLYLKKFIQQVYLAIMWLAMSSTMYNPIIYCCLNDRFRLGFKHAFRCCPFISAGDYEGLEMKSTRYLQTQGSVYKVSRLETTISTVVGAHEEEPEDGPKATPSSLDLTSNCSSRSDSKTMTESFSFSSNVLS

| SMILES | IC50 [nM] |
| --- | --- |
| FC(F)(F)c1cc(CO[C@@H]2C3CCN(CC3)[C@H]2C(c2ccccc2)c2ccccc2)cc(C(F)(F)F)c1 | 270 |
| FC(F)(F)c1cc(CO[C@@H]2C3CCN(CC3)[C@@H]2C(c2ccccc2)c2ccccc2)cc(C(F)(F)F)c1 | 570 |
| FC(F)(F)c1cc(CO[C@H]2C3CCN(CC3)[C@@H]2C(c2ccccc2)c2ccccc2)cc(C(F)(F)F)c1 | 0.7 |
| FC(F)(F)c1cc(CO[C@H]2C3CCN(CC3)[C@H]2C(c2ccccc2)c2ccccc2)cc(C(F)(F)F)c1 [L-709210] | 1.3 |
